Consider 13 compounds from ChEMBL document CHEMBL1201862, “PubChem BioAssay data set” (2004).

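Compound exposure: 48 hours, 5 concentrations, 96-well plates. GI50 = concentration required for 50% inhibition of growth.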 Active and inactive are the calls of the source. Rule as the data show it: active = GI50 up to about 1.1 µM and inactive = higher. A value given as a limit tells only on which side of the number the result lay.

Some test systems named below: UO-31; NCI-H23; NCI-H460; CAKI-1; NCI-H522; SF-268; RXF 393; Malme-3M; HCT-15; SNB-19; OVCAR-4; HT-29; LOX IMVI; SK-MEL-2; KM12; M14.
Holding throughout (assay): NCI tumour cell line growth inhibition, 48 h

With `O=S(O)CCCSSc1ccccc1`, the GI50 in the experiment on UO-31 is 19.8 µM (inactive); with NCI-H23, 66.7 µM (inactive); in the experiment on NCI-H460 it was 78.3 µM (inactive); in the experiment on CAKI-1, 27 µM (inactive); in the experiment on NCI-H522, 18.3 µM (inactive); with SF-268, 18.7 µM (inactive). Also, the GI50 in the experiment with RXF 393 was 22.9 µM (inactive); in the experiment on Malme-3M, 67 µM (inactive); in the experiment on HCT-15, 35.5 µM; in the experiment with SNB-19, 96.8 µM (inactive); in the experiment on OVCAR-4 it was 98.4 µM (inactive); in the experiment with HT-29, 46.9 µM (inactive). In addition, the GI50 with LOX IMVI is 29.3 µM (inactive); in the experiment on SK-MEL-2, 74.6 µM (inactive); in the experiment with KM12 it was 31.1 µM (inactive); in the experiment on M14, 37.1 µM (inactive).

Regarding `CN(C)c1ccc(-c2nc(N)nc3c2CCCC3)cc1`, the GI50 was 41.5 µM (inactive) in the experiment with UO-31; 64.7 µM (inactive) with NCI-H23; 65.2 µM (inactive) in the experiment with NCI-H460; 52.1 µM (inactive) in the experiment on CAKI-1; 25.2 µM (inactive) in the experiment with NCI-H522; 47.2 µM (inactive) in the experiment on SF-268. The GI50 is 34 µM (inactive) with RXF 393; 46.1 µM (inactive) in the experiment with Malme-3M; > 100 µM (inactive) in the experiment on SNB-19; 31.3 µM (inactive) in the experiment on LOX IMVI; 56.8 µM (inactive) in the experiment with SK-MEL-2; 54 µM (inactive) in the experiment on KM12. Besides, the GI50 in the experiment with M14 was 68.1 µM (inactive).

As for `O=C(CC(CC(=O)Oc1c(Br)cc(Br)cc1C(=O)O)C(=O)Oc1c(Br)cc(Br)cc1C(=O)O)Oc1c(Br)cc(Br)cc1C(=O)O`, the GI50 in the experiment with UO-31 is 36.5 µM (inactive); with NCI-H23, 36.4 µM (inactive); with NCI-H460, 56.8 µM (inactive); with CAKI-1, 72.6 µM (inactive); with NCI-H522 it was 22.2 µM (inactive); in the experiment on SF-268, 6.12 µM (inactive). Also, the GI50 is 70.1 µM (inactive) with Malme-3M; 43.8 µM in the experiment with HCT-15; 48.8 µM (inactive) in the experiment with SNB-19; 50.2 µM (inactive) in the experiment with OVCAR-4; 49.2 µM (inactive) in the experiment on HT-29; 30.8 µM (inactive) in the experiment on LOX IMVI. The GI50 is 39.2 µM (inactive) in the experiment with SK-MEL-2, 50.7 µM (inactive) in the experiment on KM12 and 91.6 µM (inactive) in the experiment on M14.

Take `O=C(NC(=O)c1cn(CCN(CCO)C(=O)NCCCCCCNC(=O)N(CCO)CCn2cc(C(=O)NC(=O)OCc3ccccc3)c(=O)[nH]c2=O)c(=O)[nH]c1=O)OCc1ccccc1`: the GI50 in the experiment on UO-31, in the experiment on NCI-H23, in the experiment with NCI-H460, with CAKI-1, in the experiment with RXF 393 and with Malme-3M was > 100 µM (inactive) each time. Further, the GI50 was above 100 µM in the experiment with HCT-15; > 100 µM (inactive) with SNB-19; > 100 µM (inactive) in the experiment on OVCAR-4; > 100 µM (inactive) with HT-29; > 100 µM (inactive) with LOX IMVI; > 100 µM (inactive) with SK-MEL-2. In addition, the GI50 with M14 is > 100 µM (inactive).

Consider `CC1CC(c2cccc3c2OCO3)=Nc2ccccc2S1` (centres undefined), for which the GI50 in the experiment with UO-31, in the experiment with NCI-H23, in the experiment with NCI-H460, in the experiment with CAKI-1, in the experiment with NCI-H522 and in the experiment with SF-268 was > 100 µM (inactive) each time. The GI50 with RXF 393 was > 100 µM (inactive); in the experiment with Malme-3M, > 100 µM (inactive); in the experiment on HCT-15, above 100 µM; in the experiment on SNB-19, > 100 µM (inactive); with OVCAR-4 it was > 100 µM (inactive); in the experiment on HT-29 it was > 100 µM (inactive). Also, the GI50 with LOX IMVI, in the experiment with SK-MEL-2, in the experiment on KM12 and in the experiment with M14 was > 100 µM (inactive) in each case.

Regarding `CC(C)[C@@H](COC(C)(C)C)/N=C/N1CCc2c([nH]c3ccccc23)C1`, the GI50 in the experiment with UO-31 is 84.9 µM (inactive); with NCI-H23, > 100 µM (inactive); with NCI-H460 it was > 100 µM (inactive); in the experiment with NCI-H522, > 100 µM (inactive); in the experiment with SF-268, > 100 µM (inactive); with RXF 393, > 100 µM (inactive). The GI50 in the experiment with HCT-15 was above 100 µM; in the experiment on SNB-19, > 100 µM (inactive); with OVCAR-4, > 100 µM (inactive); in the experiment on HT-29, > 100 µM (inactive); with LOX IMVI it was > 100 µM (inactive); in the experiment on SK-MEL-2, > 100 µM (inactive). In addition, the GI50 with KM12 and in the experiment on M14 was > 100 µM (inactive) throughout.

Take `CCOc1ccc(NC(=O)C2=C(C)NC(C)=C(C(=O)Nc3ccc(OCC)cc3)C2c2ccccc2)cc1`: the GI50 in the experiment on UO-31 is 29.2 µM (inactive); with NCI-H23, > 100 µM (inactive); in the experiment on NCI-H460 it was > 100 µM (inactive); in the experiment with CAKI-1 it was > 100 µM (inactive); in the experiment on NCI-H522, 38.3 µM (inactive); in the experiment with SF-268, 98.6 µM (inactive). The GI50 in the experiment with RXF 393, in the experiment on Malme-3M, with SNB-19, with OVCAR-4, with HT-29 and in the experiment on LOX IMVI was > 100 µM (inactive) each time. Also, the GI50 in the experiment on SK-MEL-2 was 56.8 µM (inactive); in the experiment with KM12, 41.7 µM (inactive); with M14, > 100 µM (inactive).

As for `CC(=O)C1C(c2ccc(N(C)C)cc2)c2cc3c(cc2OC1(C)O)OCO3` (centres undefined), the GI50 in the experiment on UO-31 is 29.4 µM (inactive); in the experiment with NCI-H23 it was 59 µM (inactive); in the experiment on NCI-H460, 34.4 µM (inactive); with CAKI-1 it was 20.5 µM (inactive); with RXF 393, 33.3 µM (inactive); with Malme-3M, 53 µM (inactive). Besides, the GI50 is 41.3 µM in the experiment with HCT-15; 75.7 µM (inactive) in the experiment on SNB-19; 33.7 µM (inactive) with OVCAR-4; 23.2 µM (inactive) with HT-29; 42.1 µM (inactive) with LOX IMVI; 33.3 µM (inactive) in the experiment on SK-MEL-2. Further, the GI50 with M14 is 43.8 µM (inactive).

For `O=C(N/C(=C\c1ccccc1O)c1nc2ccccc2[nH]1)c1ccccc1`, the GI50 in the experiment on UO-31 is > 100 µM (inactive); with NCI-H23, 40.6 µM (inactive); in the experiment with NCI-H460 it was > 100 µM (inactive); with CAKI-1, > 100 µM (inactive); in the experiment on NCI-H522 it was 45.2 µM (inactive); with SF-268, 37.3 µM (inactive). Also, the GI50 in the experiment with RXF 393 was > 100 µM (inactive); with Malme-3M it was > 100 µM (inactive); with HCT-15, above 100 µM; in the experiment with SNB-19 it was 39.7 µM (inactive); in the experiment on OVCAR-4, > 100 µM (inactive); in the experiment with HT-29 it was > 100 µM (inactive). In addition, the GI50 with LOX IMVI was 42.1 µM (inactive); in the experiment with SK-MEL-2, 74.1 µM (inactive); in the experiment on KM12 it was > 100 µM (inactive); with M14, > 100 µM (inactive).

On to `O=C1CCC(=O)c2sccc2N1`, for which the GI50 with UO-31, with NCI-H23, in the experiment on NCI-H460, in the experiment with CAKI-1, in the experiment with NCI-H522 and in the experiment with SF-268 was > 100 µM (inactive) each time. For the same compound, the GI50 was > 100 µM (inactive) in the experiment with RXF 393; > 100 µM (inactive) with Malme-3M; above 100 µM with HCT-15; > 100 µM (inactive) in the experiment with SNB-19; > 100 µM (inactive) with OVCAR-4; > 100 µM (inactive) in the experiment with HT-29. In addition, the GI50 with LOX IMVI, with SK-MEL-2, in the experiment with KM12 and in the experiment with M14 was > 100 µM (inactive) each time.

Consider `CC1(C)COC(c2cccc3c2C(=O)c2cccc(Cl)c2-3)=N1`, for which the GI50 is 27.1 µM (inactive) in the experiment on UO-31; 52.5 µM (inactive) in the experiment on NCI-H23; 50.4 µM (inactive) in the experiment on NCI-H460; 55 µM (inactive) with CAKI-1; 31.8 µM (inactive) in the experiment with NCI-H522; 56.5 µM (inactive) in the experiment with SF-268. Further, the GI50 in the experiment with RXF 393 is 22.7 µM (inactive); in the experiment with Malme-3M, 84.7 µM (inactive); with HCT-15, 56.4 µM; in the experiment on SNB-19, 21.1 µM (inactive); with OVCAR-4, 44.1 µM (inactive); with HT-29, 32 µM (inactive). In addition, the GI50 with LOX IMVI is 51.9 µM (inactive); in the experiment on SK-MEL-2, > 100 µM (inactive); with KM12, 47.9 µM (inactive); in the experiment with M14 it was 47.9 µM (inactive).

Consider `COc1cccc(NC(=O)C(=O)C(C(C)=O)c2nc3ccc(Cl)cc3nc2O)c1` (centres undefined), for which the GI50 in the experiment on UO-31, in the experiment on NCI-H23, with NCI-H460, in the experiment on CAKI-1, in the experiment with SF-268 and with RXF 393 was > 100 µM (inactive) throughout. Further, the GI50 with Malme-3M is > 100 µM (inactive); in the experiment on HCT-15, above 100 µM; in the experiment on SNB-19 it was > 100 µM (inactive); in the experiment with OVCAR-4, > 100 µM (inactive); with HT-29 it was > 100 µM (inactive); in the experiment on LOX IMVI, > 100 µM (inactive). For the same compound, the GI50 in the experiment on SK-MEL-2, with KM12 and in the experiment on M14 was > 100 µM (inactive) throughout.

Regarding `Nc1ncnc2c1nnn2C1C=C(CO)C(O)C1O` (centres undefined), the GI50 in the experiment on UO-31 was 42.5 µM (inactive); in the experiment on NCI-H23, > 78.9 µM (inactive); with NCI-H460, 40.8 µM (inactive); with CAKI-1, 74 µM (inactive); in the experiment with NCI-H522, > 100 µM (inactive); with SF-268, 42.7 µM (inactive). The GI50 in the experiment on RXF 393 is > 77.1 µM (inactive); with Malme-3M, > 100 µM (inactive); in the experiment on HCT-15 it was 26.6 µM; with SNB-19, > 100 µM (inactive); with OVCAR-4, 32.4 µM (inactive); in the experiment on HT-29, 35.3 µM (inactive). The GI50 was 38.6 µM (inactive) in the experiment on LOX IMVI, > 60 µM (inactive) in the experiment on SK-MEL-2, 36.6 µM (inactive) with KM12 and > 52.2 µM (inactive) in the experiment with M14.
